The target in the test is T1, Cyclin-A2 (CCNA2) (Homo sapiens, UniProt P20248).
T1 construct: recombinant human CCNA2 (rCCNA2), GST-tagged expression in BL21 (DE3), tag cleaved
The experiment in a line: ITC with purified CCNA2; supported by CETSA in MG-63 lysate and co-IP (blocks CCNA2-CDK2). The class given is binding.

The structures appear in SMILES notation.

T1 sequence (P20248 whole entry): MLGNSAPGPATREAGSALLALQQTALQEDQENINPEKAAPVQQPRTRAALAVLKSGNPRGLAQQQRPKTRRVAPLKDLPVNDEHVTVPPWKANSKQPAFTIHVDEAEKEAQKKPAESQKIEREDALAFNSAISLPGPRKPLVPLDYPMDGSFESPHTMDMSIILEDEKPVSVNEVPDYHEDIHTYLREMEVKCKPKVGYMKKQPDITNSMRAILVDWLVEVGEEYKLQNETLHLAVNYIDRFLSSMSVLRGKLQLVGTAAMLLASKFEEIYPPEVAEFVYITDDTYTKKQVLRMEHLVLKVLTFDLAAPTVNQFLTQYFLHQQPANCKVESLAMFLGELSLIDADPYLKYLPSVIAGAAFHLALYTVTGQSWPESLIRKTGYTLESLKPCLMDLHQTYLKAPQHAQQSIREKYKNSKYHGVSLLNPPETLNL

In the case of `Cc1ccccc1Cn1c2ccccc2c2cc(C(=O)OCCCCCOC(=O)c3cc4c5ccccc5n(Cc5ccccc5C)c4cn3)ncc21` [Comp1], the Kd came out at 2900 µM.

Source of the values: publication PMC9618858, “β-Carboline dimers inhibit the tumor proliferation by the cell cycle arrest of sarcoma through intercalating to Cyclin-A2” (Frontiers in Immunology, 2022).
